Measurements published in patent US8952024B2, “Herbicidal pyrimidone derivatives” (E I du Pont de Nemours and Company, priority 2009, dated 2015).

Key:
Format in all cases: in vivo
[1] = test system: canarygrass (Phalaris minor); assay: Test B postemergence plant response; details: for Canarygrass plant response rating (0 to 100 scale): 62 g ai/ha, 0 is no effect, 13 to 15 days
In short: (§1)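 Visual ratings from 0 (no effect) to 100 (complete control), made against controls 13–15 days after treatment, kept in a greenhouse. Compounds were applied postemergence to potted plants at the 1- to 4-leaf stage (2–18 cm).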

[2] = test system: windgrass (Apera spica-venti); assay: Test B postemergence plant response; details: for Windgrass plant response rating (0 to 100 scale): 62 g ai/ha, 0 is no effect, 13 to 15 days
In short: as §1

[3] = test system: chickweed (Stellaria media); assay: Test B postemergence plant response; details: for Chickweed plant response rating (0 to 100 scale): 62 g ai/ha, 0 is no effect, 13 to 15 days
In short: as §1

[4] = test system: goosegrass (Eleusine indica); assay: Test B pre-/postemergence plant response; details: for Goosegrass plant response rating (0 to 100 scale): 62 g ai/ha, 0 is no effect, 13 to 15 days
In short: (§2)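 Seeds sown in loam–sand blend were treated preemergence, and plants at 2–18 cm (1- to 4-leaf stage) in peat-based medium were treated postemergence; compounds were formulated in non-phytotoxic solvent with surfactant. After 13–15 days in greenhouse, response was visually rated against controls, 0 (no effect) to 100 (complete control).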

[5] = test system: wheat (Triticum aestivum); assay: Test B pre-/postemergence plant response; details: for Wheat plant response rating (0 to 100 scale): 62 g ai/ha, 0 is no effect, 13 to 15 days
In short: as §2

[6] = test system: ragweed (common ragweed, Ambrosia elatior); assay: Test B pre-/postemergence plant response; details: for Ragweed plant response rating (0 to 100 scale): 62 g ai/ha, 0 is no effect, 13 to 15 days
In short: as §2

[7] = test system: johnsongrass (Sorghum halepense); assay: Test B pre-/postemergence plant response; details: for Johnsongrass plant response rating (0 to 100 scale): 62 g ai/ha, 0 is no effect, 13 to 15 days
In short: as §2

[8] = test system: pigweed (Amaranthus retroflexus); assay: Test B pre-/postemergence plant response; details: for Pigweed plant response rating (0 to 100 scale): 62 g ai/ha, 0 is no effect, 13 to 15 days
In short: as §2

wild oat (Avena fatua) = assay: Test B pre-/postemergence plant response; details: for Oat, Wild plant response rating (0 to 100 scale): 62 g ai/ha, 0 is no effect, 13 to 15 days
In short: as §2

kochia (Kochia scoparia) = assay: Test B pre-/postemergence plant response; details: for Kochia plant response rating (0 to 100 scale): 62 g ai/ha, 0 is no effect, 13 to 15 days
In short: as §2

[9] = test system: velvetleaf (Abutilon theophrasti); assay: Test B pre-/postemergence plant response; details: for Velvetleaf plant response rating (0 to 100 scale): 62 g ai/ha, 0 is no effect, 13 to 15 days
In short: as §2

soybean (Glycine max) = assay: Test B pre-/postemergence plant response; details: for Soybean plant response rating (0 to 100 scale): 62 g ai/ha, 0 is no effect, 13 to 15 days
In short: as §2

[10] = test system: cocklebur (Xanthium strumarium); assay: Test B pre-/postemergence plant response; details: for Cocklebur plant response rating (0 to 100 scale): 62 g ai/ha, 0 is no effect, 13 to 15 days
In short: as §2

[11] = 31 g ai/ha, postemergence, scale 0 to 100, 0 is no effect, 100 is complete control
[12] = postemergence, 100 is complete control
[13] = Postemergence, 125 g ai/ha, visual rating after 13 to 15 days, scale 0 (no effect) to 100 (complete control)
[14] = Postemergence, 250 g ai/ha, scale 0 to 100 (0 no effect, 100 complete control)

## Cc1ccccc1-c1ncc(C(=O)C2=C(O)CCCC2=O)c(=O)n1-c1ccccc1 [Compound 82]
[1]; [11]
  Plant response rating, Canarygrass: 0
[1]; [12]
  Canarygrass plant response rating (0 to 100 scale): 0
[1]; [13]
  Plant response rating, Canarygrass: 15
[1]; [14]
  Plant response rating, Canarygrass: 35
[2]; [11]
  Plant response rating, Windgrass: 5
[2]; [12]
  Windgrass plant response rating (0 to 100 scale): 5
[2]; [13]
  Plant response rating, Windgrass: 20
[2]; [14]
  Plant response rating, Windgrass: 50
[3]; [11]
  Plant response rating, Chickweed: 90
[3]; [12]
  Chickweed plant response rating (0 to 100 scale): 90
[3]; [13]
  Plant response rating, Chickweed: 98
[3]; [14]
  Plant response rating, Chickweed: 100
[4]; [11]
  Plant response rating, Goosegrass: 75
[4]; [12]
  Goosegrass plant response rating (0 to 100 scale): 75
[4]; [13]
  Plant response rating, Goosegrass: 80
[4]; [14]
  Plant response rating, Goosegrass: 85
[5]; [11]
  Plant response rating, Wheat: 0
[5]; [12]
  Wheat plant response rating (0 to 100 scale): 0
[5]; [13]
  Plant response rating, Wheat: 0
[5]; [14]
  Plant response rating, Wheat: 5
[6]; [11]
  Plant response rating, Ragweed: 75
[6]; [12]
  Ragweed plant response rating (0 to 100 scale): 80
[6]; [13]
  Plant response rating, Ragweed: 95
[6]; [14]
  Plant response rating, Ragweed: 95
[7]; [11]
  Plant response rating, Johnsongrass: 65
[7]; [12]
  Johnsongrass plant response rating (0 to 100 scale): 80
[7]; [13]
  Plant response rating, Johnsongrass: 80
[7]; [14]
  Plant response rating, Johnsongrass: 95
[8]; [11]
  Plant response rating, Pigweed: 75
[8]; [12]
  Pigweed plant response rating (0 to 100 scale): 98
[8]; [13]
  Plant response rating, Pigweed: 100
[8]; [14]
  Plant response rating, Pigweed: 100
Wild oat (Avena fatua); [11]
  Plant response rating, Oat, Wild: 0
Wild oat (Avena fatua); [12]
  Oat, Wild plant response rating (0 to 100 scale): 0
Wild oat (Avena fatua); [13]
  Plant response rating, Oat, Wild: 5
Wild oat (Avena fatua); [14]
  Plant response rating, Oat, Wild: 10
Kochia (Kochia scoparia); [11]
  Plant response rating, Kochia: 10
Kochia (Kochia scoparia); [12]
  Kochia plant response rating (0 to 100 scale): 60
Kochia (Kochia scoparia); [13]
  Plant response rating, Kochia: 65
Kochia (Kochia scoparia); [14]
  Plant response rating, Kochia: 75
[9]; [11]
  Plant response rating, Velvetleaf: 85
[9]; [12]
  Velvetleaf plant response rating (0 to 100 scale): 90
[9]; [13]
  Plant response rating, Velvetleaf: 90
[9]; [14]
  Plant response rating, Velvetleaf: 95
Soybean (Glycine max); [11]
  Plant response rating, Soybean: 75
Soybean (Glycine max); [12]
  Soybean plant response rating (0 to 100 scale): 90
Soybean (Glycine max); [13]
  Plant response rating, Soybean: 95
Soybean (Glycine max); [14]
  Plant response rating, Soybean: 98
[10]; [11]
  Plant response rating, Cocklebur: 85
[10]; [12]
  Cocklebur plant response rating (0 to 100 scale): 90
[10]; [13]
  Plant response rating, Cocklebur: 95
[10]; [14]
  Plant response rating, Cocklebur: 100

## CC(C)CC(=O)OC1=C(C(=O)c2cnc(-c3ccccc3)n(-c3ccccc3)c2=O)C(=O)CCC1 [Compound 83]
[1]; [11]
  Plant response rating, Canarygrass: 20
[1]; [12]
  Canarygrass plant response rating (0 to 100 scale): 20
[1]; [13]
  Plant response rating, Canarygrass: 25
[1]; [14]
  Plant response rating, Canarygrass: 25
[2]; [11]
  Plant response rating, Windgrass: 5
[2]; [12]
  Windgrass plant response rating (0 to 100 scale): 10
[2]; [14]
  Plant response rating, Windgrass: 30
[3]; [11]
  Plant response rating, Chickweed: 90
[3]; [12]
  Chickweed plant response rating (0 to 100 scale): 90
[3]; [13]
  Plant response rating, Chickweed: 98
[3]; [14]
  Plant response rating, Chickweed: 100
[4]; [11]
  Plant response rating, Goosegrass: 75
[4]; [12]
  Goosegrass plant response rating (0 to 100 scale): 80
[4]; [14]
  Plant response rating, Goosegrass: 95
[5]; [11]
  Plant response rating, Wheat: 0
[5]; [12]
  Wheat plant response rating (0 to 100 scale): 0
[5]; [14]
  Plant response rating, Wheat: 0
[6]; [11]
  Plant response rating, Ragweed: 75
[6]; [12]
  Ragweed plant response rating (0 to 100 scale): 80
[6]; [14]
  Plant response rating, Ragweed: 98
[7]; [11]
  Plant response rating, Johnsongrass: 95
[7]; [12]
  Johnsongrass plant response rating (0 to 100 scale): 100
[7]; [14]
  Plant response rating, Johnsongrass: 100
[8]; [11]
  Plant response rating, Pigweed: 80
[8]; [12]
  Pigweed plant response rating (0 to 100 scale): 90
[8]; [14]
  Plant response rating, Pigweed: 100
Wild oat (Avena fatua); [11]
  Plant response rating, Oat, Wild: 10
Wild oat (Avena fatua); [12]
  Oat, Wild plant response rating (0 to 100 scale): 10
Wild oat (Avena fatua); [14]
  Plant response rating, Oat, Wild: 10
Kochia (Kochia scoparia); [11]
  Plant response rating, Kochia: 65
Kochia (Kochia scoparia); [12]
  Kochia plant response rating (0 to 100 scale): 75
Kochia (Kochia scoparia); [14]
  Plant response rating, Kochia: 95
[9]; [11]
  Plant response rating, Velvetleaf: 85
[9]; [12]
  Velvetleaf plant response rating (0 to 100 scale): 90
[9]; [14]
  Plant response rating, Velvetleaf: 100
Soybean (Glycine max); [11]
  Plant response rating, Soybean: 75
Soybean (Glycine max); [12]
  Soybean plant response rating (0 to 100 scale): 90
Soybean (Glycine max); [14]
  Plant response rating, Soybean: 95
[10]; [11]
  Plant response rating, Cocklebur: 75
[10]; [12]
  Cocklebur plant response rating (0 to 100 scale): 80
[10]; [13]
  Plant response rating, Cocklebur: 80
[10]; [14]
  Plant response rating, Cocklebur: 90
